# Test results taken from publication PMC10069031 (European Journal of Medical Research, 2023).
# Columns and labels:
# CCL2 [1] = experiment: CCL2 ELISA in CT26 tumor tissue; format: in vivo, mouse; conditions: CT26 tumors
# Description: CT26 tumor cells were cultivated in RPMI 1640 with 2 mM L-glutamine (Gibco, Invitrogen GmbH) containing 10% fetal bovine serum (Gibco) at 37 °C and 5% CO2. Cell lines were maintained in culture for no longer than 6 months, and mycoplasma contamination was excluded by enzymatic test (MycoAlert, Lonza) prior to in vivo application. Tumor cells (2 × 10^6) were transplanted subcutaneously into 6- to 8-week-old female BALB/c mice. Control mice were subjected to sham surgery without tumor cell transplantation. Blood and tumor samples were collected from untreated control and tumor-bearing mice on days 4 and 8 (n = 3 mice/group). […] For interim analysis, blood and tumor tissue were collected from each group (n = 3 mice/group) after 7 days of treatment. […] Tumor diameter was measured by caliper and body weight was determined at least twice weekly. Tumor volume was calculated using the formula 0.5 × a × b^2, where a and b are the long and short diameters of the tumor, respectively.
# For tissue collection, mice were killed at predetermined time points. […] Tumors were removed, and their weights determined, then divided into three pieces, one of which was snap-frozen, one formalin fixed and paraffin embedded, and one weighed and used for FC analyses. […]
# ERK1/2 = experiment: Inhibition of ERK activation in CSF1-stimulated RAW264.7 cells (western blot); format: cell-based, mouse; conditions: Mus musculus, mean ± SD (replicates), read-out: Mean kinase IC50 values: P(T185,202;Y187,204) ERK1/2 [WB]
# Description: RAW264.7 cells (10^6) were seeded into cell culture dishes 6 cm in diameter and incubated in 4 mL RPMI/10% fetal bovine serum (Biochrom) for 24 h at 37 °C in a humidified 5% CO2 atmosphere. Cells were washed once with phosphate-buffered saline (PBS) and starved in 3 mL RPMI/0.1% bovine serum albumin for another 24 h. Cells were then treated for 1 h at 37 °C with drugs at the indicated final concentrations, with 0.5% DMSO as vehicle control, or left untreated, and finally stimulated for 2 min at 37 °C with 100 ng/mL recombinant mouse CSF1 (R&D Systems) by adding 1 mL prewarmed starving medium containing 400 ng/mL CSF1. Dishes were placed on ice and cells were immediately washed with ice-cold PBS and lysed with 50 µL lysis buffer (50 mM HEPES pH 7.5, 150 mM NaCl, 1.5 mM MgCl2, 10% glycerol, 1% Triton X-100, 0.5% desoxycholate, 0.2% sodium dodecyl sulfate, 1 mM ethylene glycol-bis[β-aminoethyl ether]-N,N,N′,N′-tetraacetic acid, 100 mM NaF, 10 mM Na4P2O7, 1 mM Na3VO4, 1% Phosphatase Inhibitor Cocktail 3 [Sigma-Aldrich], 1 mM phenylmethyl sulfonyl fluoride, Complete Protease Inhibitor Cocktail [Roche CustomBiotech; 1 tablet/10 mL], and 50 U/mL Benzonase [Sigma-Aldrich]). Lysed cells were scraped into Eppendorf tubes, incubated on ice for 20 min, and centrifuged at 4 °C for 10 min at 13,000 rpm; supernatants (lysates) were transferred into new tubes and stored at −80 °C.
# Protein concentrations were determined using Pierce bicinchoninic acid assay (Thermo Fisher Scientific) and 40 µg/lane of total lysate was separated by SDS-PAGE on 4–12% Criterion XT Bis–Tris Gels (Bio-Rad) and subsequently transferred to polyvinylidene difluoride membranes using the Trans Blot Turbo Blotting System (Bio-Rad). For antigen detection, membranes were blocked with PBS Odyssey blocking reagent (LI-COR Biosciences) for 1 h at room temperature (RT). Primary antibodies were incubated overnight at 4 °C and the fluorescent secondary antibodies were incubated for 1 h at RT. After each antibody incubation, blots were washed with PBS with 0.05% Tween 20 (Carl Roth) for 15–30 min at RT. Fluorescent signals were quantitatively captured using the Odyssey DLx Infrared Imaging System (LI-COR Biosciences) and the half-maximal inhibitory concentration (IC50) values were calculated using GraphPad software (version 7 or newer).
# CCL2 [2] = experiment: CCL2 in MC38 tumors; format: in vivo, mouse; conditions: REG 5 and 10 mg/kg/day
# Description: For tumors, snap-frozen tissue was subjected to cryogenic grinding using a Mixer Mill MM 400 and stainless steel beads (7 mm in diameter; Retsch) and subsequently lysed in Tris Lysis Buffer (Meso Scale Diagnostics). The lysates were centrifuged at 25,000 g at 4 °C for 10 min, protein concentrations were determined using the 660 nm protein assay kit (Pierce), and 2–20 μg of lysate was used for CCL2 analysis. CCL2 concentrations were related to the amounts of tumor tissue taken for the lysis procedure.
# Five analysis of variance (ANOVA) models were applied to analyze the log10-transformed values of the tumor weight in the CT26 study, the CCL2 levels in the tumor in the CT26 and MC38 studies, and the CCL2 levels in the PB in the CT26 and MC38 studies. The standard assumption of equal variances between treatment groups was applied for all endpoints, except for CCL2 levels in the tumor in the MC38 study, for which unequal variances between treatment groups were allowed. A negative binomial regression model was applied to evaluate percentages of CD115^hi and F4/80^hi cells within the CD45^+ cell population in PB and tumor tissue, respectively.
# In vivo passaging was initiated by transplanting fragments of cryo-preserved MC38 tumors of early passages (<p5) subcutaneously into 6–8-week-old female C57BL/6 mice. […]
# CCL2 [3] = experiment: CCL2 ELISA in plasma, CT26 study; format: in vivo, mouse; conditions: steady-state analysis
# Description: CT26 tumor cells were cultivated in RPMI 1640 with 2 mM L-glutamine (Gibco, Invitrogen GmbH) containing 10% fetal bovine serum (Gibco) at 37 °C and 5% CO2. Cell lines were maintained in culture for no longer than 6 months, and mycoplasma contamination was excluded by enzymatic test (MycoAlert, Lonza) prior to in vivo application. Tumor cells (2 × 10^6) were transplanted subcutaneously into 6- to 8-week-old female BALB/c mice. Control mice were subjected to sham surgery without tumor cell transplantation. Blood and tumor samples were collected from untreated control and tumor-bearing mice on days 4 and 8 (n = 3 mice/group). […] Tumor diameter was measured by caliper and body weight was determined at least twice weekly. Tumor volume was calculated using the formula 0.5 × a × b^2, where a and b are the long and short diameters of the tumor, respectively.
# For tissue collection, mice were killed at predetermined time points. […] Tumors were removed, and their weights determined, then divided into three pieces, one of which was snap-frozen, one formalin fixed and paraffin embedded, and one weighed and used for FC analyses.
# CCL2 was detected in plasma samples and tumor tissue using the U-Plex mouse MCP-1 ELISA Kit (Meso Scale Diagnostics) according to the manufacturer’s instructions. […] For plasma, 12.5 µL was analyzed per animal. […]
compound,measurement,setting,value
"CNC(=O)c1cc(Oc2ccc(NC(=O)Nc3ccc(Cl)c(C(F)(F)F)c3)c(F)c2)ccn1 [REG, Regorafenib]",CCL2 concentrations in tumor lysates vs vehicle controls,CCL2 [1],a trend toward higher levels
same,IC50,ERK1/2,0.293 ± 0.123 µM
same,CCL2 concentrations in MC38 tumors,CCL2 [2],dose dependently increased
same,CCL2 levels in plasma vs vehicle or untreated samples,CCL2 [3],did not change
